In patent publication US20100298141A1, “SUBSTITUTED PYRIDINE N-OXIDE HERBICIDES” (E. I. DU PONT DE NEMOURS AND COMPANY, priority 2007, published 2010):

How the values were obtained:
[1] = system: crabgrass; assay: Test C pre-/postemergence test; format: in vivo, Digitaria sanguinalis; details: Preemergence
In short: (§1)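 Seeds were planted and treated preemergence with test chemical in a non-phytotoxic solvent mixture containing surfactant. Postemergence applications of the same formulation went onto plants 2 to 18 cm tall (1- to 4-leaf stage). A dash marks no test result.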

[2] = system: Italian ryegrass; assay: Test C pre-/postemergence test; format: in vivo, Lolium multiflorum; details: Preemergence
In short: as §1

[3] = system: crabgrass; assay: Test A pre-/postemergence greenhouse test; format: in vivo, Digitaria sanguinalis; details: for Crabgrass, Large plant response rating: 0 to 100 scale
In short: (§2)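 Sowing in loam/sand; same-day pre (directed soil spray) and post (foliar, 1–2 leaf, 2–10 cm) treatment with surfactant-containing non-phytotoxic solvent formulation; ~10 days in greenhouse; eye-scored injury against untreated plants.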

[4] = system: Surinam grass; assay: Test C pre-/postemergence test; format: in vivo, Brachiaria decumbens; details: Preemergence
In short: as §1

[5] = system: giant foxtail; assay: Test A pre-/postemergence greenhouse test; format: in vivo, Setaria faberi; details: for Foxtail, Giant plant response rating: 0 to 100 scale
In short: as §2

[6] = system: barnyardgrass; assay: Test C flooded paddy test; format: in vivo, Echinochloa crus-galli; details: Flood
In short: (§3)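 Visual injury ratings against untreated controls, taken 13 to 15 days after compound was added to paddy water standing 3 cm above the soil.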

[7] = system: cocklebur; assay: Test C pre-/postemergence test; format: in vivo, Xanthium strumarium
In short: as §1

[8] = system: soybean; assay: Test C pre-/postemergence test; format: in vivo, Glycine max; details: Preemergence, 31 g ai/ha; scale 0 to 100 (0 no effect, 100 complete control)
In short: as §1

[9] = system: morningglory; assay: Test A pre-/postemergence greenhouse test; format: in vivo, Ipomoea spp.; details: for Morningglory plant response rating: 0 to 100 scale
In short: as §2

[10] = system: barnyardgrass; assay: Test A pre-/postemergence greenhouse test; format: in vivo, Echinochloa crus-galli; details: for Barnyardgrass plant response rating: 0 to 100 scale
In short: as §2

[11] = system: pigweed; assay: Test C pre-/postemergence test; format: in vivo, Amaranthus retroflexus; details: Preemergence
In short: as §1

[12] = system: kochia; assay: Test C pre-/postemergence test; format: in vivo, Kochia scoparia; details: Preemergence
In short: as §1

[13] = system: umbrella sedge; assay: Test C flooded paddy test; format: in vivo, Cyperus difformis; details: Flood
In short: as §3

[14] = system: common (oilseed) sunflower; assay: Test C pre-/postemergence test; format: in vivo, Helianthus annuus; details: Preemergence
In short: as §1

[15] = system: Goosegrass; assay: Test C pre-/postemergence test; format: in vivo, Eleusin indica; details: Preemergence
In short: as §1

[16] = system: lambsquarters; assay: Test C pre-/postemergence test; format: in vivo, Chenopodium album; details: Preemergence
In short: as §1

[17] = system: bermudagrass; assay: Test C pre-/postemergence test; format: in vivo, Cynodon dactylon
In short: as §1

[18] = 31 g ai/ha, scale 0 to 100 (0 no effect, 100 complete control)
[19] = Postemergence, 125 g ai/ha, 0 is no effect, 100 is complete control
[20] = Postemergence, 500 g ai/ha, 0 is no effect, 100 is complete control
[21] = Preemergence, 125 g ai/ha, 0 no effect, 100 complete control
[22] = Preemergence, 500 g ai/ha, 0 to 100 scale where 0 is no effect and 100 is complete control
[23] = 62 g ai/ha, scale 0 to 100, 0 no effect, 100 complete control, 13 to 15 days
[24] = 125 g ai/ha, scale 0 to 100, 0 no effect, 100 complete control, 13 to 15 days
[25] = 250 g ai/ha, scale 0 to 100, 0 no effect, 100 complete control, 13 to 15 days
[26] = Preemergence, 31 g ai/ha, scale 0 to 100 (0 no effect, 100 complete control)
[27] = preemergence, 125 g ai/ha, scale 0 (no effect) to 100 (complete control)

Cc1cc[n+]([O-])c([S+]([O-])Cc2c(C(F)(F)F)nn(C)c2OCC(F)(F)F)c1 (racemic) [Compound 30]
85: Plant response rating (0 to 100), Cocklebur ([7]; Preemergence, 250 g ai/ha)
80: Foxtail, Giant plant response rating [5, 19] | Cocklebur plant response rating [7, 27] | Plant response rating, Sedge, Umbrella [13, 18]
100: Plant response rating (0 to 100), Crabgrass, Large ([1]; 250 g ai/ha) | Crabgrass, Large plant response rating [3, 21] | Plant response rating, Crabgrass, Large [3, 22] | Surinam Grass plant response rating ([4]; 62 g ai/ha, scale 0 to 100) | Foxtail, Giant plant response rating [5, 21] | Plant response rating, Foxtail, Giant [5, 22] | Morningglory plant response rating [9, 21] | Plant response rating, Morningglory [9, 22] | Barnyardgrass plant response rating [10, 21] | Plant response rating, Barnyardgrass [10, 22] | Pigweed plant response rating ([11]; 62 g ai/ha, scale 0 to 100) | Plant response rating, Pigweed [11, 18] | Kochia plant response rating ([12]; 62 g ai/ha, scale 0 to 100) | Plant response rating, Kochia [12, 18] | Plant response rating, Sedge, Umbrella [13, 23] | Plant response rating, Sedge, Umbrella [13, 24] | Plant response rating, Sedge, Umbrella [13, 25] | Goosegrass plant response rating ([15]; 62 g ai/ha, scale 0 to 100) | Plant response rating (0 to 100), Goosegrass ([15]; 250 g ai/ha) | Lambsquarters plant response rating ([16]; 62 g ai/ha, scale 0 to 100) | Plant response rating, Lambsquarters [16, 18] | Bermudagrass plant response rating ([17]; 62 g ai/ha, Preemergence, scale 0 to 100 (0 no effect, 100 complete control)) | Plant response rating, Bermudagrass [17, 26] | Plant response rating (0 to 100), Bermudagrass ([17]; Preemergence, 250 g ai/ha) | Bermudagrass plant response rating [17, 27]
90: Crabgrass, Large plant response rating [3, 20] | Foxtail, Giant plant response rating [5, 20] | Morningglory plant response rating [9, 20] | Barnyardgrass plant response rating [10, 20]
60: Plant response rating, Surinam Grass [4, 18] | Plant response rating, Soybean [8]
40: Plant response rating, Sunflower [14, 18]
20: Plant response rating, Barnyardgrass [6, 24]
70: Ryegrass, Italian plant response rating ([2]; 62 g ai/ha, scale 0 to 100) | Crabgrass, Large plant response rating [3, 19] | Morningglory plant response rating [9, 19] | Barnyardgrass plant response rating [10, 19] | Sunflower plant response rating ([14]; 62 g ai/ha, scale 0 to 100)
98: Crabgrass, Large plant response rating ([1]; 62 g ai/ha, scale 0 to 100) | Plant response rating, Crabgrass, Large [1, 18] | Plant response rating, Goosegrass [15, 18]
65: Plant response rating, Barnyardgrass [6, 25]
0: Plant response rating, Ryegrass, Italian [2, 18] | Plant response rating, Barnyardgrass [6, 18] | Plant response rating, Barnyardgrass [6, 23] | Cocklebur plant response rating ([7]; 62 g ai/ha, Preemergence, scale 0 to 100) | Plant response rating, Cocklebur [7, 26]
